In the supplement of paper PMC10307832:

Tests used:
Assay in all cases: relative viability (nuclei count vs DMSO), 5 days (fraction); higher = more cells survive
NCI-H2023 = test system: NCI-H2023
Summary of the method: (§1)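 Dosing by pin tool came one day after lung cancer cell lines were seeded in 1536-well plates, using either one drug or a fixed anchor-drug dose plus five library-drug doses (not always all listed) in √10 steps. After 5 days, nuclei were counted on 4× images. Relative viability is treated-well nuclei count divided by vehicle-well nuclei count, and values are medians of duplicate plates.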

NCI-H2405 = test system: NCI-H2405
Summary of the method: as §1

NCI-H2170 = test system: NCI-H2170
Summary of the method: as §1

NCI-H1734 = test system: NCI-H1734
Summary of the method: as §1

NCI-H647 = test system: NCI-H647
Summary of the method: as §1

LOU-NH91 = test system: LOU-NH91
Summary of the method: as §1

EPLC-272H = test system: EPLC-272H
Summary of the method: as §1

SW 900 = test system: SW 900
Summary of the method: as §1

PC-14 = test system: PC-14
Summary of the method: as §1

NCI-H1793 = test system: NCI-H1793
Summary of the method: as §1

NCI-H2347 = test system: NCI-H2347
Summary of the method: as §1

NCI-H441 = test system: NCI-H441
Summary of the method: as §1

HCC-15 = test system: HCC-15
Summary of the method: as §1

NCI-H3122 = test system: NCI-H3122
Summary of the method: as §1

COR-L23 = test system: COR-L23
Summary of the method: as §1

NCI-H322M = test system: NCI-H322M
Summary of the method: as §1

H3255 = test system: H3255
Summary of the method: as §1

UMC-11 = test system: UMC-11
Summary of the method: as §1

NCI-H520 = test system: NCI-H520
Summary of the method: as §1

NCI-H1650 = test system: NCI-H1650
Summary of the method: as §1

201T = test system: 201T
Summary of the method: as §1

Q: With `CCN(CC)CCCCNc1ncc2cc(-c3cc(OC)cc(OC)c3)c(NC(=O)NC(C)(C)C)nc2n1` + Nc1ncn([C@H]2C[C@H](O)[C@@H](CO)O2)c(=O)n1 [Decitabine] (partner 2 µM) as the molecule, how does the relative viability (NCI-H2023; first compound 0.01 µM) read?
A: 0.221

Q: What about the relative viability (NCI-H2023; first compound 0.03162 µM) of the same molecule?
A: 0.268

Q: What about the relative viability (NCI-H2023; first compound 0.1 µM) of the same molecule?
A: 0.232

Q: And the relative viability (NCI-H2023; first compound 0.3162 µM)?
A: 0.236

Q: What about the relative viability (NCI-H2023; first compound 1 µM) of the same molecule?
A: 0.206

Q: And the relative viability (NCI-H2405; first compound 0.01 µM)?
A: 0.778

Q: And the relative viability (NCI-H2405; first compound 0.03162 µM)?
A: 0.728

Q: What about the relative viability (NCI-H2405; first compound 0.1 µM) of the same molecule?
A: 0.767

Q: What about the relative viability (NCI-H2405; first compound 0.3162 µM) of the same molecule?
A: 0.765

Q: What about the relative viability (NCI-H2405; first compound 1 µM) of the same molecule?
A: 0.702

Q: And the relative viability (NCI-H2170; first compound 0.01 µM)?
A: 0.474

Q: What about the relative viability (NCI-H2170; first compound 0.03162 µM) of the same molecule?
A: 0.427

Q: And the relative viability (NCI-H2170; first compound 0.1 µM)?
A: 0.436

Q: And the relative viability (NCI-H2170; first compound 0.3162 µM)?
A: 0.47

Q: What about the relative viability (NCI-H2170; first compound 1 µM) of the same molecule?
A: 0.497

Q: And the relative viability (NCI-H1734; first compound 0.01 µM)?
A: 0.485

Q: And the relative viability (NCI-H1734; first compound 0.03162 µM)?
A: 0.372

Q: What about the relative viability (NCI-H1734; first compound 0.1 µM) of the same molecule?
A: 0.534

Q: What about the relative viability (NCI-H1734; first compound 0.3162 µM) of the same molecule?
A: 0.473

Q: And the relative viability (NCI-H1734; first compound 1 µM)?
A: 0.475

Q: And the relative viability (NCI-H647; first compound 0.01 µM)?
A: 0.429

Q: What about the relative viability (NCI-H647; first compound 0.03162 µM) of the same molecule?
A: 0.383

Q: And the relative viability (NCI-H647; first compound 0.1 µM)?
A: 0.489

Q: And the relative viability (NCI-H647; first compound 0.3162 µM)?
A: 0.349

Q: And the relative viability (NCI-H647; first compound 1 µM)?
A: 0.361

Q: And the relative viability (LOU-NH91; first compound 0.01 µM)?
A: 0.799

Q: And the relative viability (LOU-NH91; first compound 0.03162 µM)?
A: 0.783

Q: What about the relative viability (LOU-NH91; first compound 0.1 µM) of the same molecule?
A: 0.875

Q: And the relative viability (LOU-NH91; first compound 0.3162 µM)?
A: 0.801

Q: What about the relative viability (LOU-NH91; first compound 1 µM) of the same molecule?
A: 0.804

Q: What about the relative viability (EPLC-272H; first compound 0.01 µM) of the same molecule?
A: 0.384

Q: What about the relative viability (EPLC-272H; first compound 0.1 µM) of the same molecule?
A: 0.359

Q: And the relative viability (EPLC-272H; first compound 0.3162 µM)?
A: 0.378

Q: What about the relative viability (EPLC-272H; first compound 1 µM) of the same molecule?
A: 0.331

Q: And the relative viability (SW 900; first compound 0.01 µM)?
A: 0.509

Q: And the relative viability (SW 900; first compound 0.03162 µM)?
A: 0.401

Q: What about the relative viability (SW 900; first compound 0.1 µM) of the same molecule?
A: 0.459

Q: What about the relative viability (SW 900; first compound 0.3162 µM) of the same molecule?
A: 0.416

Q: What about the relative viability (SW 900; first compound 1 µM) of the same molecule?
A: 0.437

Q: What about the relative viability (PC-14; first compound 0.01 µM) of the same molecule?
A: 0.239

Q: What about the relative viability (PC-14; first compound 0.03162 µM) of the same molecule?
A: 0.298

Q: What about the relative viability (PC-14; first compound 0.1 µM) of the same molecule?
A: 0.262

Q: And the relative viability (PC-14; first compound 0.3162 µM)?
A: 0.249

Q: And the relative viability (PC-14; first compound 1 µM)?
A: 0.228

Q: And the relative viability (NCI-H1793; first compound 0.01 µM)?
A: 0.496

Q: What about the relative viability (NCI-H1793; first compound 0.03162 µM) of the same molecule?
A: 0.464

Q: What about the relative viability (NCI-H1793; first compound 0.1 µM) of the same molecule?
A: 0.56

Q: And the relative viability (NCI-H1793; first compound 0.3162 µM)?
A: 0.472

Q: What about the relative viability (NCI-H1793; first compound 1 µM) of the same molecule?
A: 0.352

Q: And the relative viability (NCI-H2347; first compound 0.01 µM)?
A: 0.573

Q: What about the relative viability (NCI-H2347; first compound 0.03162 µM) of the same molecule?
A: 0.62

Q: What about the relative viability (NCI-H2347; first compound 0.1 µM) of the same molecule?
A: 0.623

Q: What about the relative viability (NCI-H2347; first compound 0.3162 µM) of the same molecule?
A: 0.626

Q: And the relative viability (NCI-H2347; first compound 1 µM)?
A: 0.578

Q: And the relative viability (NCI-H441; first compound 0.01 µM)?
A: 0.118

Q: What about the relative viability (NCI-H441; first compound 0.03162 µM) of the same molecule?
A: 0.265

Q: And the relative viability (NCI-H441; first compound 0.1 µM)?
A: 0.242

Q: What about the relative viability (NCI-H441; first compound 0.3162 µM) of the same molecule?
A: 0.261

Q: What about the relative viability (NCI-H441; first compound 1 µM) of the same molecule?
A: 0.244

Q: And the relative viability (HCC-15; first compound 0.01 µM)?
A: 0.691

Q: And the relative viability (HCC-15; first compound 0.03162 µM)?
A: 0.635

Q: What about the relative viability (HCC-15; first compound 0.1 µM) of the same molecule?
A: 0.655

Q: And the relative viability (HCC-15; first compound 0.3162 µM)?
A: 0.68

Q: What about the relative viability (HCC-15; first compound 1 µM) of the same molecule?
A: 0.51

Q: What about the relative viability (NCI-H3122; first compound 0.01 µM) of the same molecule?
A: 0.493

Q: And the relative viability (NCI-H3122; first compound 0.03162 µM)?
A: 0.472

Q: And the relative viability (NCI-H3122; first compound 0.1 µM)?
A: 0.418

Q: What about the relative viability (NCI-H3122; first compound 0.3162 µM) of the same molecule?
A: 0.448

Q: And the relative viability (NCI-H3122; first compound 1 µM)?
A: 0.42

Q: And the relative viability (COR-L23; first compound 0.01 µM)?
A: 0.4

Q: What about the relative viability (COR-L23; first compound 0.03162 µM) of the same molecule?
A: 0.445

Q: And the relative viability (COR-L23; first compound 0.1 µM)?
A: 0.461

Q: And the relative viability (COR-L23; first compound 0.3162 µM)?
A: 0.442

Q: And the relative viability (COR-L23; first compound 1 µM)?
A: 0.43

Q: And the relative viability (NCI-H322M; first compound 0.01 µM)?
A: 0.691

Q: What about the relative viability (NCI-H322M; first compound 0.03162 µM) of the same molecule?
A: 0.767

Q: And the relative viability (NCI-H322M; first compound 0.1 µM)?
A: 0.687

Q: And the relative viability (NCI-H322M; first compound 0.3162 µM)?
A: 0.696

Q: What about the relative viability (NCI-H322M; first compound 1 µM) of the same molecule?
A: 0.663

Q: And the relative viability (H3255; first compound 0.01 µM)?
A: 0.453

Q: And the relative viability (H3255; first compound 0.1 µM)?
A: 0.65

Q: What about the relative viability (H3255; first compound 0.3162 µM) of the same molecule?
A: 0.712

Q: And the relative viability (H3255; first compound 1 µM)?
A: 0.448

Q: And the relative viability (UMC-11; first compound 0.01 µM)?
A: 0.724

Q: And the relative viability (UMC-11; first compound 0.03162 µM)?
A: 0.615

Q: And the relative viability (UMC-11; first compound 0.1 µM)?
A: 0.661

Q: And the relative viability (UMC-11; first compound 0.3162 µM)?
A: 0.592

Q: What about the relative viability (UMC-11; first compound 1 µM) of the same molecule?
A: 0.592

Q: What about the relative viability (NCI-H520; first compound 0.01 µM) of the same molecule?
A: 0.51

Q: What about the relative viability (NCI-H520; first compound 0.03162 µM) of the same molecule?
A: 0.466

Q: And the relative viability (NCI-H520; first compound 0.1 µM)?
A: 0.501

Q: What about the relative viability (NCI-H520; first compound 0.3162 µM) of the same molecule?
A: 0.313

Q: And the relative viability (NCI-H520; first compound 1 µM)?
A: 0.202

Q: And the relative viability (NCI-H1650; first compound 0.01 µM)?
A: 0.398

Q: And the relative viability (NCI-H1650; first compound 0.03162 µM)?
A: 0.381

Q: What about the relative viability (NCI-H1650; first compound 0.1 µM) of the same molecule?
A: 0.397

Q: What about the relative viability (NCI-H1650; first compound 0.3162 µM) of the same molecule?
A: 0.368

Q: And the relative viability (NCI-H1650; first compound 1 µM)?
A: 0.384

Q: And the relative viability (201T; first compound 0.01 µM)?
A: 0.864

Q: What about the relative viability (201T; first compound 0.03162 µM) of the same molecule?
A: 0.847

Q: And the relative viability (201T; first compound 0.1 µM)?
A: 0.86

Q: What about the relative viability (201T; first compound 0.3162 µM) of the same molecule?
A: 0.857

Q: What about the relative viability (201T; first compound 1 µM) of the same molecule?
A: 0.83
